In US20050222204A1, “Opioid receptor antagonists” (priority 2002, published 2005):
Where two headings read alike, the source gives them in different places.

Tests used:
[1] = target: T1, human opioid receptors, Mu (MOR) (Homo sapiens, UniProt P35372); assay: GTPγS functional antagonist assay (SPA), mu receptor, vs DAMGO; assay type: biochemical
T1 construct: expressed in transfected cells
Protocol: (§1) An SPA-based GTPgS assay format was developed based on previous opioid (Emmerson et al., J. Pharm Exp Ther 278,1121,1996; Homg et al., Society for Neuroscience Abstracts, 434.6, 2000) and muscarinic (DeLapp et al., JPET 289, 946, 1999) assay formats. Membranes were resuspended in 20 mM HEPES, 100 mM NaCl, 5 mM MgCl2, 1 mM DTT, and 1 mM EDTA. […] of GTPγ[35S], compound, membrane suspension (20 microgram/well), and wheat germ agglutinin coated SPA beads (1 mg/well) were added to clear bottom 96 well assay plates. GDP ([…]) was added to the membrane solution prior to addition to the assay plates. Plates were sealed and incubated for four hours at room temperature then placed in a refrigerator overnight to allow the beads to settle. […] Plates were warmed to room temperature and counted in a Wallac Microbeta scintillation counter. For antagonist assays, specific agonists were added at the following concentrations: (MOR) DAMGO 1 micromolar, (DOR) DPDPE 30 nM, (KOR) U69593 300 nM. Kb's were determined by Cheng-Prusoff equation (Cheng and Prusoff, 22,3099 1973).

[2] = target: T2, human opioid receptors, Kappa (KOR) (Homo sapiens, UniProt P41145); assay: GTPγS functional antagonist assay (SPA), kappa receptor, vs U69593; assay type: biochemical
T2 construct: expressed in transfected cells
Protocol: as §1

[3] = target: T3, human opioid receptors, Delta (DOR) (Homo sapiens, UniProt P41143); assay: GTPγS functional antagonist assay (SPA), delta receptor, vs DPDPE; assay type: biochemical
T3 construct: expressed in transfected cells
Protocol: as §1

[4] = Bioavailability in rat (Table 2); settings: in vivo, read-out: Metabolis Rat (bioavailability)
[5] = target: T4, human Cytochrome 2D6 (CYP2D6) (Homo sapiens, UniProt P10635); assay: Assay for inhibition of CYP2D6 activity (human liver microsomes, bufuralol substrate); assay type: in vitro ADME
T4 construct: from tissue; host or cells: human liver microsomes
Protocol: The reduced potential for inhibition of cytochrome P450 was discovered using a standard assay that monitors the compound's ability to inhibit Cyp2D6 a member of the cytochrome P450 family of enzymes.
Assay for Inhibition of CYP2D6 Activity
The inhibition of human Cytochrome 2D6 (CYP2D6) activity was studied using a validated high through-put screening assay. A 3 uL aliquot of an 8 mM stock solution of compound was delivered to 397 uL of pH 7.4 (50 mM) phosphate buffer resulting in an initial concentration of 60 uM. The compound dose solutions were prepared by serial dilutions to produce concentrations of […]. A 6 mM NaDPH stock solution was prepared by addition of 100 mg of NaDPH to 20 mL of pH 7.4 buffer. A 600 uL aliquot of Human liver Microsomes (HLM-20.0 mg/ml) was added to 20 ml of pH 7.4 phosphate buffer to produce a 0.6 mg/ml solution of HLM. To the HLM mixture was added 120 uL of a 10 mM bufurolol solution (CYP2D6 substrate) producing a final bufuralol concentration of 60 uM. To each assay plate was added 100 uL of the compound dose solutions, 25 uL NaDPH and 25 uL HLM/bufurolol solution. Samples were incubated at 37° C. for 10 minutes and the reaction was quenched with 25 uL of a 2% perchloric acid solution, followed by centrifugation at 3200 rpm for 30 min. The resulting supernatant was assayed for bufurolol concentrations using a Turbo Ion Spray API 150EX MS method. The calculated IC50 value represents the compound concentration that results in a 50% reduction in burfurolol consumption. Table 3 below provides a comparative data for inhibition of CyP2D6.

male Long-Evans rats = assay: Antiorexigenic effect: food consumption in fasted rats; assay type: in vivo, rat; settings: oral 3 mg/kg; rats fasted 18 hours; over 1 hour, 2 hour and 4 hour periods; vs untreated control
Protocol: Compounds were tested for effects on food consumption in male Long-Evans rats which had been fasted for 18 hours prior to testing. The weight of food consumed was measured for groups of 6 rats treated with test substance and compared to the food consumed by an untreated control group of 6 animals.

T1 sequence (P35372 whole entry): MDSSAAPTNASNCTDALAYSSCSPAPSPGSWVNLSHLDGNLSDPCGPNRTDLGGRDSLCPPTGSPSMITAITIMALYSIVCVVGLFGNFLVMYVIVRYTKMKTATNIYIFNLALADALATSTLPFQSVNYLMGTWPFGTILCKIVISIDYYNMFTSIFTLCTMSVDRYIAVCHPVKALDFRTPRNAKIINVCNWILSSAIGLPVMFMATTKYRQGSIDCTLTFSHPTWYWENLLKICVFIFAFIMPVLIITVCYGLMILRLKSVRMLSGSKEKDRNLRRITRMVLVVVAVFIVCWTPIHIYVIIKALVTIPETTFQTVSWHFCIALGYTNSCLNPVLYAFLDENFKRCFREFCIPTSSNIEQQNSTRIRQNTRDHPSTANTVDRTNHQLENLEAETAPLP
T3 sequence (P41143 whole entry): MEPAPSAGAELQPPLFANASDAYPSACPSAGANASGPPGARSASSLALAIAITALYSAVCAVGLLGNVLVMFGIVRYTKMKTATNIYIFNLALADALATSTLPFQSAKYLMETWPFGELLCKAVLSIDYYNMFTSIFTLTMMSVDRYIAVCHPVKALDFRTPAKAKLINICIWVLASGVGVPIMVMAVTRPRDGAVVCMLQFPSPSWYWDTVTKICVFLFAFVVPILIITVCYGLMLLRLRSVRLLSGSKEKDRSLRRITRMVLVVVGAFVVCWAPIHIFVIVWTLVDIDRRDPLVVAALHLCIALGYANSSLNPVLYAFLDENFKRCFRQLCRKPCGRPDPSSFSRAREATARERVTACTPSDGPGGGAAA
T4 sequence (P10635 whole entry): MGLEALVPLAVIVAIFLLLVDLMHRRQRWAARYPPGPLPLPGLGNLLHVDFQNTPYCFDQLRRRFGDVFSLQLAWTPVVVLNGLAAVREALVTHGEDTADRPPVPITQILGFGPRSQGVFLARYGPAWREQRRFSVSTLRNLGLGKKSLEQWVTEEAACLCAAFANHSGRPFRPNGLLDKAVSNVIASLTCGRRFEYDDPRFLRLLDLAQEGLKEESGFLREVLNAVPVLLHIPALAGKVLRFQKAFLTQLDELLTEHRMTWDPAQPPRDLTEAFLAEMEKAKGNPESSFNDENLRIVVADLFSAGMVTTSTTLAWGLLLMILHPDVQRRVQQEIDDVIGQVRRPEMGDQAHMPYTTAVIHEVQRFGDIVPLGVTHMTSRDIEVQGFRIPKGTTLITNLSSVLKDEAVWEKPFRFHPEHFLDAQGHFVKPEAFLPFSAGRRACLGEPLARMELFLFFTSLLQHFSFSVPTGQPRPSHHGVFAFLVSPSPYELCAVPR
T2 sequence (P41145 whole entry): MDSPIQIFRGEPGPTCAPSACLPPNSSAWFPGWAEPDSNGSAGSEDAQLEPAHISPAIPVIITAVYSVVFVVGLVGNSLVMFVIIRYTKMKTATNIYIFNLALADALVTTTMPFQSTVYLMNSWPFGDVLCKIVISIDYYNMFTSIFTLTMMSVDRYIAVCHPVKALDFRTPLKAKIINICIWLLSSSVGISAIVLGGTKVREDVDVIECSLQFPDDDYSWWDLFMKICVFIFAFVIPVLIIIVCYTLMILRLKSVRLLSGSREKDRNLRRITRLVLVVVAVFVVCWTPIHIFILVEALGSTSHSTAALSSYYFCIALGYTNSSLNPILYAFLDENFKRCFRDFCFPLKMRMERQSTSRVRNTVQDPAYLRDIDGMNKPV

**Q.** Which results are given for `CCCCCCN1CC[C@@](C)(c2cccc(C(N)=O)c2)[C@@H](C)C1` [(II), reference compound]?
**A.** Kb [1]: 0.31 nM; Kb [2]: 4.51 nM; Kb [3]: 8.72 nM

**Q.** For `C[C@H]1CN(CC[C@H](O)C2CCCCC2)CC[C@@]1(C)c1cccc(C(N)=O)c1` (stereo in doubt) [(I), 3-[1-(3-Cyclohexyl-3-hydroxy-propyl)-3,4-dimethyl-piperidin-4-yl]-benzamide], which Kb [1] is on record?
**A.** Its Kb is 0.12 nM.

**Q.** And the “fold more potent than the compound of formula (II) in GTP-γ-S functional antagonist assay” value ([1]; versus compound (II) of Table 1, mu, kappa, delta)?
**A.** The value was “at least 2 fold”.

**Q.** What about the Kb [2] of the same molecule?
**A.** The Kb was 1.93 nM.

**Q.** And the Kb [3]?
**A.** The Kb was 2.81 nM.

**Q.** What about the bioavailability [4] of the same molecule?
**A.** The bioavailability was 32%.

**Q.** And the IC50 ([5]; human liver microsomes, bufuralol substrate, 37° C., 10 minutes)?
**A.** Its IC50 is 39 µM.

**Q.** And the “times less likely to inhibit the cytochrome P450 enzyme system compared to compound (III)” value ([5]; versus compound (III) of Table 3)?
**A.** Its value is “over 4 times”.

**Q.** And the “times less likely to cause inhibition of the cytochrome P450 enzyme compared to compound (II)” value ([5]; versus prior clinical trial candidate compound (II) of Table 3)?
**A.** The value was about 16 times.

**Q.** What about the “inhibition of cumulative food consumed” value (male Long-Evans rats) of the same molecule?
**A.** The value was “statistically significant inhibition”.

**Q.** For `C[C@H]1CN(CC[C@H](O)C2CCCCC2)CC[C@@]1(C)c1cccc(O)c1` [(III)], which Kb ([3]; read-out: In Vitro GTPγ-S human opioid receptors Delta (Kb)) is on record?
**A.** Its Kb is 1.19 nM.
